From publication PMC3996911 (Molecular cell, 2014)

Columns and labels:
[1] = target: T1, PPX (Escherichia coli, UniProt P0AFL6); assay: specific activity after incubation with N-chlorotaurine; type: biochemical; settings: covalent (oxidation of Cys169 and, to a lesser extent, Cys85)
T1 sequence (P0AFL6 2-513): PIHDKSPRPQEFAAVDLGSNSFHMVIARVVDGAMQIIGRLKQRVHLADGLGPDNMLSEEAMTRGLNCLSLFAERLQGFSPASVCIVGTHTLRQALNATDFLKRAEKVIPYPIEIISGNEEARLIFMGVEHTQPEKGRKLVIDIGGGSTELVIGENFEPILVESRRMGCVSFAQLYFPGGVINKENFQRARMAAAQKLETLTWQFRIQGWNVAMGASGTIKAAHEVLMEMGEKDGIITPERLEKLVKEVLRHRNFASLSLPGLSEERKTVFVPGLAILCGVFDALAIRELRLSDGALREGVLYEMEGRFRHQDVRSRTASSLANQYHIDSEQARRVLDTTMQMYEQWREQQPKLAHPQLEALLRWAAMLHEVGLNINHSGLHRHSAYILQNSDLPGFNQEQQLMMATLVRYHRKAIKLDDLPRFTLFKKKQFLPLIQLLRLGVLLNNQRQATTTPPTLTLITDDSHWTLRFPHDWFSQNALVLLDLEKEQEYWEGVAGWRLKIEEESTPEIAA

[2] = target: PPK (Escherichia coli, UniProt P0A7B1)
Chain of PPK (P0A7B1 2-688): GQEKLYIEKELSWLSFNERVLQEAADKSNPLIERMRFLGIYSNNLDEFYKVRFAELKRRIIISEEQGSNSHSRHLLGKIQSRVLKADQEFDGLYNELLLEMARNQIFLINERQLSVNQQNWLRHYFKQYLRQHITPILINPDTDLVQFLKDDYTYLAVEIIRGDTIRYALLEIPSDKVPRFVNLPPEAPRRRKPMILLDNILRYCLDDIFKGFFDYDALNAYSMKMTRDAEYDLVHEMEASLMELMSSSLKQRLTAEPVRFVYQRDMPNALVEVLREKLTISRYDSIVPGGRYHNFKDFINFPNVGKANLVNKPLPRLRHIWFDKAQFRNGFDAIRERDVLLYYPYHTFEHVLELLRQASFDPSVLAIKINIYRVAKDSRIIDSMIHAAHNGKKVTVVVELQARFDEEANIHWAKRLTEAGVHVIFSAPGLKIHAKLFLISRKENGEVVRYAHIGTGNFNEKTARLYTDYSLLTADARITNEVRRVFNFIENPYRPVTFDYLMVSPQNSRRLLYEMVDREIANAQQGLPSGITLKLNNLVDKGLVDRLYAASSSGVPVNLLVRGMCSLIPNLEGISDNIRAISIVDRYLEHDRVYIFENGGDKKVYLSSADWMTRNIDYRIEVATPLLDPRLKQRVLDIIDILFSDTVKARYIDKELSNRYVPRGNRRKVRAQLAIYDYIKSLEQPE

SMILES | specific activity after incubation with N-chlorotaurine [1] | specific activity, forward reaction (polyP synthesis) [2]
O=S(=O)(O)CCNCl [N-chlorotaurine] | Purified PPX proved to be highly sensitive to inactivation by N-chlorotaurine | 
Nc1ncnc2c1ncn2[C@@H]1O[C@H](COP(=O)(O)OP(=O)(O)OP(=O)(O)O)[C@@H](O)[C@H]1O [ATP] |  | Specific activity of PPK’s forward and reverse reactions (see Figure 1C)
